The source of these data is EPA's ToxValDB 9.5 (doi:10.2903/j.efsa.2014.3677).

The test system of one data set is Apis mellifera. The conditions noted are these: acute, mortality.
Another data set relates to Bibionidae. The conditions noted are these: chronic/long-term; duration: 28 days.
The subject of the next data set is Canidae. The conditions noted are these: chronic; duration: 1 years; oral; Dog Other; clinical signs.
In a further data set the test system is Colinus virginianus. The conditions noted are these: acute; oral; diet.
For a further data set, the system named is Folsomia candida. The conditions noted are these: chronic/long-term.
Another data set has as its system Hyalella azteca. The conditions noted are these: acute; duration: 48 hours; mortality.
A further data set relates to Leuciscus idus. The conditions noted are these: acute; duration: 96 hours; mortality.
A further data set concerns Mus musculus. The conditions noted are these: acute; oral.
The next data set relates to Neomysis kadiakensis. The conditions noted are these: chronic/long-term; duration: 28 days.
A further data set has as its system Pimephales promelas. The conditions noted are these: chronic/long-term; duration: 300 days.
The subject of the next data set is Plant. The conditions noted are these: not reported.
The subject of another data set is Rattus norvegicus. The conditions noted are these: reproduction developmental; body weight.
The next data set has as its system Aphidius rhopalosiphi. The experiment in a line: LR50; higher = less toxic. The conditions noted are these: not reported; mortality.
The subject of another data set is Typhlodromus pyri. In words: LR50; higher = less toxic. The conditions noted are these: not reported; mortality.

Values after ≈ are worked out from the molar mass of the structure shown. Values joined by “and” are separate entries in the source; they are usually repeats but may differ in a detail not shown here. Equal values may be shown once. Some results are limits rather than exact numbers.

As to `CC1(C)[C@H](/C=C(\Cl)C(F)(F)F)[C@@H]1C(=O)O[C@@H](C#N)c1cccc(Oc2ccccc2)c1` [lambda-Cyhalothrin], the LD50 with Anas platyrhynchos (acute, oral, unspecified) was 3950 mg/kg-day; in the data set with Apis mellifera (dermal) it was 0.038 µg/piece; in the data set with Apis mellifera (oral, unspecified) it was 0.91 µg/piece; in the data set on Colinus virginianus, greater than 530 mg/kg-day; in the data set on Mus musculus it was 20 mg/kg-day. Further, the NOEC in the data set with Anas platyrhynchos (reproductive) was determined as 3.3 mg/kg-day; with Bibionidae it was 0.13 µg/L; with Folsomia candida, 2.73 mg/kg; in the data set with Neomysis kadiakensis, 0.00022 µg/L; in the data set with Pimephales promelas, 0.031 µg/L; in the data set with Plant it was 7.5 g/ha. Moreover, in the data set on Tagia sp. (chronic/long-term), the NOEC came out at 3.12 mg/kg. Moreover, the NOAEL (commonly the highest tested level that showed no adverse finding) is 0.5 mg/kg-day in the data set on Canidae; 0.5 mg/kg-day and 0.25 mg/kg-day in the data set on Rattus norvegicus. Further, the LC50 in the data set with Hyalella azteca was 0.0019 ng/mL (≈ 0.00422 nM); with Leuciscus idus, 0.078 ng/mL (≈ 0.173 nM); with Tagia sp. (acute, mortality), greater than 500 mg/kg. Besides, the LR50 was determined as 1.06 g/ha in the data set with Aphidius rhopalosiphi and 0.0037 g/ha with Typhlodromus pyri.
